# Laboratory results: patent US8158575B2, “Agent for the prevention and treatment of sexually transmitted diseases-I” (priority 2001, dated 2012)
# Marks after values point to notes of the source that are not given here.
# Assays:
# [1] = test system: HIV-1 (IIIB); assay type: cell-based; settings: strain IIIB (HIV-1), MT-4 cells
# Experimental: (§1) The human immunodeficiency virus strains used were HIV-1 (IIIB)^1 and HIV-2 (ROD)^2. Anti-retroviral activity and cytotoxicity measurements were carried out in parallel. […] After the MT-4 cells were allowed to proliferate for 5 days, the number of viable cells was quantified by a tetrazolium-based calorimetric 3-(4,5-dimethylthiazol-2-yl)-2,5-diphenyltetrazolium bromide (MTT) procedure in 96-well microtrays.^3
# (§2) In all of these assays, viral input (viral multiplicity of infection, MOI) was 0.01, or 100 times the 50% cell culture infective dose (CCID50). […] Average EC50 and CC50 values for several separate experiments are presented as defined above. […] SI is the antiviral selectivity index CC50/EC50.
# [2] = test system: HIV-2 (ROD); experiment: Anti-retroviral activity in HIV-infected MT-4 cells (MTT); assay type: cell-based; settings: strain ROD (HIV-2)
# Experimental: as §1, §2
# [3] = test system: PBMCs; experiment: MTS cell viability in PBMC assay; assay type: cell-based, human
# Excerpt: Human peripheral blood mononuclear cells from a minimum of 2 donors, that have been blasted with PHA and IL-2, were counted, viability determined by Trypan Blue dye exclusion and mixed in equal ratios. Pooled donors were used to minimize the variability observed between individual donors which results from quantitative and qualitative differences in HIV infection and overall response to the PHA and IL-2 of primary lymphocyte populations. The cells were resuspended at 1×10^6 cells/mL in RPMI 1640 without phenol red supplemented with 15% Fetal Bovine Serum (heat inactivated), 2 mM L-glutamine, 100 U/mL penicillin, 100 μg/mL streptomycin, 10 μg/mL gentamycin and IL-2 (20 U/mL, R&D Systems, Minneapolis, Minn.). Fifty microliters of cells were then distributed to the inner 60 wells of a 96 well round bottom microtiter culture plate in a standard format developed by the Infectious Disease Research department of Southern Research Institute. Each plate contains cell control wells (cells only), virus control wells (cells plus virus), and experimental wells (drug plus cells plus virus). Serially diluted compounds are added to the microtiter plate followed by the appropriate pre-titered strain of HIV-1 or SHIV-1. All samples were assayed in triplicate with a replicate plate without virus for the determination of compound toxicity. The final volume per well was 200 µL. The assay was incubated for 6 days in a humidified atmosphere at 37° C., 5% CO2, after which supernatants were collected, for analysis of RT activity and sister plates analyzed for cell viability by MTS dye reduction. Wells were also examined microscopically and any abnormalities noted.
# At assay termination the assay plates were stained with the soluble tetrazolium-based dye MTS (CellTiter® Reagent Promega, Madison, Wis.) to determined cell viability and quantify compound toxicity. […] At termination of the PBMC assay 20 µL of MTS reagent was added per well, and the wells are incubated for 4 h at 37° C.
# AZT has been used as a relevant positive control compound for the individual assays.
# [4] = test system: C. trachomatis; experiment: C. trachomatis genital tract infection in mice; assay type: in vivo, mouse; settings: 15 μL of 100 mg/mL, −20 sec
# Excerpt: Lower genital tract infection is defined by isolation of the organism by culture from vaginal swab samples collected on days 3 or 6 post challenge. For upper genital tract infection the definition is isolation of the organism by culture from the upper genital tract tissue harvested on day 10 post challenge. Phosphate buffer PBS treated mice were used as controls.
# [5] = test system: IIIB strain of HIV; assay type: cell-based, HIV-1; settings: HeLa CD4 LTR […]-gal cells
# Experimental: At 24 h media is removed and compound in media placed on the cells and incubated for 15 min at 37° C.
# [6] = test system: HeLa CD4 LTR […]-gal cells; experiment: XTT toxicity on sister plate of the fusion assay; assay type: cell-based
# Experimental: The fusion assay assesses the ability of compounds to block cell-to-cell fusion mediated by HIV-1 Env and CD4 expressed on separate cells. This assay is sensitive to inhibitors of both the gp120/CD4 interaction and inhibitors of the X4 coreceptor. First, 5×10^3 HeLa CD4 LTR […]-gal cells are placed in microtiter wells and incubated overnight. The following day the media is removed and the HeLa CD4 LTR […]-gal cells are incubated for 1 h at 37° C. in fresh media with test compound. Following the incubation 5×10^3 HL2/3 cells are added and the incubation continued for 40 to 48 h. At 40 to 48 h […]-galactosidase enzyme expression is detected by chemiluminescence (Tropix Gal-screen™, Tropix, Bedford, Mass.). Compound toxicity is monitored on a sister plate using XTT dye reduction.
# [7] = test system: GHOST(3) X4/R5 cell line; experiment: XTT cell viability in the CD4-dependent transmission assay; assay type: cell-based, human
# Experimental: The […] is carried out essentially as described for the CD4-independent transmission assay except for the use of the CD4 positive GHOST(3) X4/R5 cell line. This cell line is derived from the HOS (human osteosarcoma) cell line that is negative for HIV coreceptor and CD4 expression. The cell line is engineered to express T4 (CD4), R5 and X4 via non-selectable retroviral vectors and an HIV-2 LTR hGFP construct with a hygromycin selectable marker. The cell lines are handled and cultured as described above for the CD4-independent HIV inhibition assay, with the exception that 2.5×10^4 GHOST(3) X4/R5 and 5×10^2 mitomycin C treated H9/SK-1 cells are used in the assay. Addition of compounds, mitomycin C treatment and post-transmission washing to remove the H9/SK-1 cells are performed as described above to allow comparability of the two antiviral assays. Virus replication is assessed at 24 h post infection, following 3 washes, by measurement of cell-associated p24 by ELISA to ensure a single round of infection in the presence of CD4. Compound toxicity and cell viability are assessed by XTT dye reduction.
substance,measurement,setting,value
"BHAlyslys2lys4lys8lys16[NH—CO—CH2)O-3,6-Naphthyl-(SO3Na)2]32 [SPL-7013]",EC90,[1],0.954 µg/mL
same,EC50,[1]; 5 days,0.45 µg/mL
same,EC90,[2],4.86 µg/mL
same,EC50,[2]; 5 days,3.26 µg/mL
same,HIV-1 RoJo Infected PBMCs TC50,[3]; plate of the HIV-1 RoJo test,>100 µg/mL
same,SHIV 89.6pd Infected PBMCs TC50,[3]; plate of the SHIV 89.6pd test,>100 µg/mL
same,"Animals Protected Against Infection, Lower Tract (%)","[4]; Group 1, mouse",(50%)^a
same,"Animals Protected Against Infection, Lower Tract (number)","[4]; Group 1, mouse",8
same,"Animals Protected Against Infection, Upper Tract (%)","[4]; Group 1, mouse",(50%)
same,"Animals Protected Against Infection, Upper Tract (number)","[4]; Group 1, mouse",8
same,"Animals Protected Against Infection, Lower Tract (%)","[4]; Group 2, mouse",(38%)
same,"Animals Protected Against Infection, Lower Tract (number)","[4]; Group 2, mouse",6
same,"Animals Protected Against Infection, Upper Tract (%)","[4]; Group 2, mouse",(50%)^a
same,"Animals Protected Against Infection, Upper Tract (number)","[4]; Group 2, mouse",8
same,Attachment Assay IC50,[5],0.57 µg/ml
same,Fusion Assay TC50,[6],>100 µg/mL
same,CD4-Dependent Transmission Assay TC50,[7],>100 µg/mL
